Experimental data published in PubChem BioAssay AID1259407 (Chemical Carcinogenesis Research Information System (CCRIS), 2018).
Activity calls are given as the source filed them. How the calls were made is not given here.

Tested on: CCRIS mutagenicity, Ames/micronucleus/aberration tests
Assay: CCRIS mutagenicity studies
[1] = Test System: AMES SALMONELLA TYPHIMURIUM, Strain/Indicator: TA97, Metabolic Activation: RAT, LIVER, S-9, AROCLOR 1254, Method: STANDARD PLATE
[2] = Test System: AMES SALMONELLA TYPHIMURIUM, Strain/Indicator: TA98, Metabolic Activation: HAMSTER, LIVER, S-9, AROCLOR 1254 (10%), Method: PREINCUBATION
[3] = Test System: AMES SALMONELLA TYPHIMURIUM, Strain/Indicator: TA98, Metabolic Activation: NONE, Method: PREINCUBATION
[4] = Test System: AMES SALMONELLA TYPHIMURIUM, Strain/Indicator: TA98, Metabolic Activation: RAT, LIVER, S-9, AROCLOR 1254 (10%), Method: PREINCUBATION
[5] = Test System: AMES SALMONELLA TYPHIMURIUM, Strain/Indicator: TA98, Metabolic Activation: RAT, LIVER, S-9, AROCLOR 1254, Method: STANDARD PLATE
[6] = Test System: AMES SALMONELLA TYPHIMURIUM, Strain/Indicator: TA100, Metabolic Activation: HAMSTER, LIVER, S-9, AROCLOR 1254 (10%), Method: PREINCUBATION
[7] = Test System: AMES SALMONELLA TYPHIMURIUM, Strain/Indicator: TA100, Metabolic Activation: NONE, Method: PREINCUBATION
[8] = Test System: AMES SALMONELLA TYPHIMURIUM, Strain/Indicator: TA100, Metabolic Activation: RAT, LIVER, S-9, AROCLOR 1254 (10%), Method: PREINCUBATION
[9] = Test System: AMES SALMONELLA TYPHIMURIUM, Strain/Indicator: TA1535, Metabolic Activation: HAMSTER, LIVER, S-9, AROCLOR 1254 (10%), Method: PREINCUBATION
[10] = Test System: AMES SALMONELLA TYPHIMURIUM, Strain/Indicator: TA1535, Metabolic Activation: NONE, Method: PREINCUBATION
[11] = Test System: AMES SALMONELLA TYPHIMURIUM, Strain/Indicator: TA1535, Metabolic Activation: RAT, LIVER, S-9, AROCLOR 1254 (10%), Method: PREINCUBATION
[12] = Test System: AMES SALMONELLA TYPHIMURIUM, Strain/Indicator: TA1537, Metabolic Activation: HAMSTER, LIVER, S-9, AROCLOR 1254 (10%), Method: PREINCUBATION
[13] = Test System: AMES SALMONELLA TYPHIMURIUM, Strain/Indicator: TA1537, Metabolic Activation: NONE, Method: PREINCUBATION
[14] = Test System: AMES SALMONELLA TYPHIMURIUM, Strain/Indicator: TA1537, Metabolic Activation: RAT, LIVER, S-9, AROCLOR 1254 (10%), Method: PREINCUBATION

## COc1ccc(CN(CCN(C)C)c2ccccn2)cc1
Test System: AMES SALMONELLA TYPHIMURIUM, Strain/Indicator: TA97, Metabolic Activation: NONE, Method: STANDARD PLATE
  mutagenic call: inactive; negative
[1]
  mutagenic call: inactive; negative
[2]
  mutagenic call: inactive; negative
[3]
  mutagenic call: inactive; negative
Test System: AMES SALMONELLA TYPHIMURIUM, Strain/Indicator: TA98, Metabolic Activation: NONE, Method: STANDARD PLATE
  mutagenic call: inactive; negative
[4]
  mutagenic call: inactive; negative
[5]
  mutagenic call: inactive; negative
[6]
  mutagenic call: inactive; negative
[7]
  mutagenic call: inactive; negative
Test System: AMES SALMONELLA TYPHIMURIUM, Strain/Indicator: TA100, Metabolic Activation: NONE, Method: STANDARD PLATE
  mutagenic call: inactive; negative
[8]
  mutagenic call: inactive; negative
Test System: AMES SALMONELLA TYPHIMURIUM, Strain/Indicator: TA100, Metabolic Activation: RAT, LIVER, S-9, AROCLOR 1254, Method: STANDARD PLATE
  mutagenic call: inactive; negative
Test System: AMES SALMONELLA TYPHIMURIUM, Strain/Indicator: TA102, Metabolic Activation: NONE, Method: STANDARD PLATE
  mutagenic call: inactive; negative
Test System: AMES SALMONELLA TYPHIMURIUM, Strain/Indicator: TA102, Metabolic Activation: RAT, LIVER, S-9, AROCLOR 1254, Method: STANDARD PLATE
  mutagenic call: inactive; negative
[9]
  mutagenic call: inactive; negative
[10]
  mutagenic call: inactive; negative
[11]
  mutagenic call: inactive; negative
[12]
  mutagenic call: inactive; negative
[13]
  mutagenic call: inactive; negative
[14]
  mutagenic call: inactive; negative
Test System: MOUSE LYMPHOMA, Strain/Indicator: L5178Y (TK+/TK-), Metabolic Activation: NONE, Method: SUSPENSION/PLATE
  mutagenic call: inactive; negative
Test System: MOUSE LYMPHOMA, Strain/Indicator: L5178Y (TK+/TK-), Metabolic Activation: RAT, LIVER, S-9, AROCLOR 1242 AND 1254 (2:1 MIXTURE), Method: SUSPENSION/PLATE
  mutagenic call: active; positive

## Cc1ccc2nc3n(C)c4ccccc4c(C)c-3c2c1
[1]
  mutagenic call: active; positive
[5]
  mutagenic call: active; positive

## CN(C)CCC(c1ccccc1)c1ccccn1 (centres undefined)
[2]
  mutagenic call: inactive; negative
[3]
  mutagenic call: inactive; negative
[4]
  mutagenic call: inactive; negative
[6]
  mutagenic call: inactive; negative
[7]
  mutagenic call: inactive; negative
[8]
  mutagenic call: inactive; negative
[9]
  mutagenic call: inactive; negative
[10]
  mutagenic call: inactive; negative
[11]
  mutagenic call: inactive; negative
[12]
  mutagenic call: inactive; negative
[13]
  mutagenic call: inactive; negative
[14]
  mutagenic call: inactive; negative

## C/C=C/C=O
End Point: IN VITRO CHROMOSOMAL ABERRATIONS, Test System: CHINESE HAMSTER OVARY CELLS, Metabolic Activation: NONE
  mutagenic call: active; positive
End Point: IN VITRO CHROMOSOMAL ABERRATIONS, Test System: CHINESE HAMSTER OVARY CELLS, Metabolic Activation: RAT, LIVER, S-9, AROCLOR 1254
  mutagenic call: active; positive
End Point: IN VITRO CHROMOSOMAL ABERRATIONS, Test System: CHL CELLS, Metabolic Activation: RAT, LIVER, S-9, SODIUM PHENOBARBITAL AND 5,6-BENZOFLAVONE
  mutagenic call: active; positive (structural changes)
End Point: In vivo chromosomal aberrations, Test System: Bone marrow, Species: Mouse, Strain/Sex: Swiss/ 3 males and 2 females per group, Route: Intraperitoneal
  mutagenic call: active; positive (statistically significant at all doses and durations) (structural aber
End Point: In vivo chromosomal aberrations, Test System: Spermatocytes, Species: Mouse, Strain/Sex: Swiss/males, Route: Intraperitoneal
  mutagenic call: active; positive (dose-related) (autosomal univalents, x-y univalents, fragments or brea
Test System: AMES SALMONELLA TYPHIMURIUM, Strain/Indicator: TA98, Metabolic Activation: NONE, Method: FLUCTUATION (MICROTITER)
  mutagenic call: active; positive
[3]
  mutagenic call: active; positive
Test System: AMES SALMONELLA TYPHIMURIUM, Strain/Indicator: TA98, Metabolic Activation: RAT LIVER S-9, PHENOBARBITAL AND BETA-NAPHTHOFLAVONE, Method: PREINCUBATION
  mutagenic call: active; positive
Test System: AMES SALMONELLA TYPHIMURIUM, Strain/Indicator: TA100, Metabolic Activation: NONE, Method: MODIFIED LIQUID SUSPENSION
  mutagenic call: active; positive
[7]
  mutagenic call: active; positive
Test System: AMES SALMONELLA TYPHIMURIUM, Strain/Indicator: TA100, Metabolic Activation: NONE, Method: PREINCUBATION (THREEFOLD CELL DENSITY)
  mutagenic call: active; positive
Test System: AMES SALMONELLA TYPHIMURIUM, Strain/Indicator: TA100, Metabolic Activation: RAT LIVER S-9, PHENOBARBITAL AND BETA-NAPHTHOFLAVONE, Method: PREINCUBATION
  mutagenic call: active; positive
Test System: AMES SALMONELLA TYPHIMURIUM, Strain/Indicator: TA100, Metabolic Activation: RAT, LIVER, S-9, AROCLOR 1254, Method: MODIFIED LIQUID SUSPENSION
  mutagenic call: active; positive
Test System: AMES SALMONELLA TYPHIMURIUM, Strain/Indicator: TA100, Metabolic Activation: RAT, LIVER, S-9, AROCLOR 1254, Method: PREINCUBATION (THREEFOLD CELL DENSITY)
  mutagenic call: active; positive
Test System: AMES SALMONELLA TYPHIMURIUM, Strain/Indicator: TA104, Metabolic Activation: NONE, Method: PREINCUBATION
  mutagenic call: active; positive
[10]
  mutagenic call: inactive; negative
Test System: AMES SALMONELLA TYPHIMURIUM, Strain/Indicator: TA1535, Metabolic Activation: RAT LIVER S-9, PHENOBARBITAL AND BETA-NAPHTHOFLAVONE, Method: PREINCUBATION
  mutagenic call: inactive; negative
Test System: AMES SALMONELLA TYPHIMURIUM, Strain/Indicator: TA1537, Metabolic Activation: NONE, Method: FLUCTUATION (MICROTITER)
  mutagenic call: inactive; negative
Test System: AMES SALMONELLA TYPHIMURIUM, Strain/Indicator: TA1537, Metabolic Activation: RAT LIVER S-9, PHENOBARBITAL AND BETA-NAPHTHOFLAVONE, Method: PREINCUBATION
  mutagenic call: inactive; negative
Test System: AMES SALMONELLA TYPHIMURIUM, Strain/Indicator: TA7001, Metabolic Activation: NONE, Method: FLUCTUATION (MICROTITER)
  mutagenic call: inactive; negative
Test System: AMES SALMONELLA TYPHIMURIUM, Strain/Indicator: TA7002, Metabolic Activation: NONE, Method: FLUCTUATION (MICROTITER)
  mutagenic call: active; positive
Test System: AMES SALMONELLA TYPHIMURIUM, Strain/Indicator: TA7003, Metabolic Activation: NONE, Method: FLUCTUATION (MICROTITER)
  mutagenic call: inactive; negative
Test System: AMES SALMONELLA TYPHIMURIUM, Strain/Indicator: TA7004, Metabolic Activation: NONE, Method: FLUCTUATION (MICROTITER)
  mutagenic call: active; positive
Test System: AMES SALMONELLA TYPHIMURIUM, Strain/Indicator: TA7005, Metabolic Activation: NONE, Method: FLUCTUATION (MICROTITER)
  mutagenic call: active; positive
Test System: AMES SALMONELLA TYPHIMURIUM, Strain/Indicator: TA7006, Metabolic Activation: NONE, Method: FLUCTUATION (MICROTITER)
  mutagenic call: active; positive
Test System: CHINESE HAMSTER OVARY, Strain/Indicator: AS52/6-THIOGUANINE, Metabolic Activation: NONE, Method: STANDARD PLATE
  mutagenic call: inactive; negative
Test System: E.COLI, Strain/Indicator: WP2UVRA, Metabolic Activation: NONE, Method: PREINCUBATION
  mutagenic call: inactive; negative
Test System: E.COLI, Strain/Indicator: WP2UVRA, Metabolic Activation: RAT LIVER S-9, PHENOBARBITAL AND BETA-NAPHTHOFLAVONE, Method: PREINCUBATION
  mutagenic call: inactive; negative
